These compounds were tested on MFM-223 (assay: normalised response (% of control), CellTox Green; higher = less cell death (100 = DMSO, 0 = benzethonium chloride kill control)). Conditions: incubation time: 72 h.
In short: (§1)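 Normalised signals at single concentrations make up the values. They come from breast cancer cell lines seeded (20 µl suspension) into 384-well plates with compound at 5 concentrations in 10-fold steps over a compound-specific 10,000-fold range, incubated 72 h, and read for CellTox Green fluorescence then CellTiter-Glo luminescence. Each plate was normalised to 0.1 % DMSO (100) and a positive kill control (0).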

Question: For CO[C@H]1/C=C\C=C(/C)C(=O)NC2=CC(=O)C(NCCN(C)C)=C(C[C@@H](C)C[C@H](OC)[C@H](O)[C@@H](C)/C=C(\C)[C@@H]1OC(N)=O)C2=O [Alvespimycin] (1000 nM), which normalised response is on record?
Answer: 86.5%

Question: For Cc1ccc(C(=O)Nc2ccc(CN3CCN(C)CC3)c(C(F)(F)F)c2)cc1C#Cc1cnc2cccnn12 [Ponatinib] (1000 nM), which normalised response is on record?
Answer: 96.4%

Question: Which normalised response does the source give for COc1cc2nccc(Oc3ccc(NC(=O)C4(C(=O)Nc5ccc(F)cc5)CC4)cc3)c2cc1OC [Cabozantinib] (1000 nM) here?
Answer: 93.8%

These compounds were tested on MDA-MB-436 in the same assay as above. Conditions: incubation time: 72 h.
In short: as §1

Question: How did the normalised response turn out when CC1(C)NC(=O)N(c2ccc([N+](=O)[O-])c(C(F)(F)F)c2)C1=O [Nilutamide] (1000 nM) was run?
Answer: 103%

Question: With CNCc1ccc(-c2[nH]c3cc(F)cc4c3c2CCNC4=O)cc1 [Rucaparib] (10000 nM) as the compound, how does the normalised response read?
Answer: 75.7%

Question: For CO[C@H]1/C=C\C=C(/C)C(=O)NC2=CC(=O)C(NCCN(C)C)=C(C[C@@H](C)C[C@H](OC)[C@H](O)[C@@H](C)/C=C(\C)[C@@H]1OC(N)=O)C2=O [Alvespimycin] (1000 nM), which normalised response is on record?
Answer: 106%

Question: How did the normalised response turn out when Cc1ccc(C(=O)Nc2ccc(CN3CCN(C)CC3)c(C(F)(F)F)c2)cc1C#Cc1cnc2cccnn12 [Ponatinib] (1000 nM) was run?
Answer: 95.6%

Question: How did the normalised response turn out when COc1cc2nccc(Oc3ccc(NC(=O)C4(C(=O)Nc5ccc(F)cc5)CC4)cc3)c2cc1OC [Cabozantinib] (1000 nM) was run?
Answer: 87.1%

Each compound was assayed on DU-4475 in the same assay as above. Conditions: incubation time: 72 h.
In short: as §1

Question: With CC1(C)NC(=O)N(c2ccc([N+](=O)[O-])c(C(F)(F)F)c2)C1=O [Nilutamide] (1000 nM) as the compound, how does the normalised response read?
Answer: 103%

Question: Which normalised response does the source give for CNCc1ccc(-c2[nH]c3cc(F)cc4c3c2CCNC4=O)cc1 [Rucaparib] (10000 nM) here?
Answer: 97.5%

Question: Which normalised response does the source give for CO[C@H]1/C=C\C=C(/C)C(=O)NC2=CC(=O)C(NCCN(C)C)=C(C[C@@H](C)C[C@H](OC)[C@H](O)[C@@H](C)/C=C(\C)[C@@H]1OC(N)=O)C2=O [Alvespimycin] (1000 nM) here?
Answer: 79.2%

Question: Which normalised response does the source give for Cc1ccc(C(=O)Nc2ccc(CN3CCN(C)CC3)c(C(F)(F)F)c2)cc1C#Cc1cnc2cccnn12 [Ponatinib] (1000 nM) here?
Answer: 93.3%

Question: Which normalised response does the source give for COc1cc2nccc(Oc3ccc(NC(=O)C4(C(=O)Nc5ccc(F)cc5)CC4)cc3)c2cc1OC [Cabozantinib] (1000 nM) here?
Answer: 96.9%

The compounds below were run on HDQ-P1 in the same assay as above. Conditions: incubation time: 72 h.
In short: as §1

Question: How did the normalised response turn out when CC1(C)NC(=O)N(c2ccc([N+](=O)[O-])c(C(F)(F)F)c2)C1=O [Nilutamide] (1000 nM) was run?
Answer: 88.5%

Question: Which normalised response does the source give for CNCc1ccc(-c2[nH]c3cc(F)cc4c3c2CCNC4=O)cc1 [Rucaparib] (10000 nM) here?
Answer: 105%

Question: How did the normalised response turn out when CO[C@H]1/C=C\C=C(/C)C(=O)NC2=CC(=O)C(NCCN(C)C)=C(C[C@@H](C)C[C@H](OC)[C@H](O)[C@@H](C)/C=C(\C)[C@@H]1OC(N)=O)C2=O [Alvespimycin] (1000 nM) was run?
Answer: 80%

Question: How did the normalised response turn out when Cc1ccc(C(=O)Nc2ccc(CN3CCN(C)CC3)c(C(F)(F)F)c2)cc1C#Cc1cnc2cccnn12 [Ponatinib] (1000 nM) was run?
Answer: 76.6%

Question: COc1cc2nccc(Oc3ccc(NC(=O)C4(C(=O)Nc5ccc(F)cc5)CC4)cc3)c2cc1OC [Cabozantinib] (1000 nM) was tested. Which normalised response did it give?
Answer: 65.3%

What follows are compounds tested on CAL-120 in the same assay as above. Conditions: incubation time: 72 h.
In short: as §1

Question: CC1(C)NC(=O)N(c2ccc([N+](=O)[O-])c(C(F)(F)F)c2)C1=O [Nilutamide] (1000 nM) was tested. Which normalised response did it give?
Answer: 101%

Question: For CNCc1ccc(-c2[nH]c3cc(F)cc4c3c2CCNC4=O)cc1 [Rucaparib] (10000 nM), which normalised response is on record?
Answer: 98.4%

Question: For CO[C@H]1/C=C\C=C(/C)C(=O)NC2=CC(=O)C(NCCN(C)C)=C(C[C@@H](C)C[C@H](OC)[C@H](O)[C@@H](C)/C=C(\C)[C@@H]1OC(N)=O)C2=O [Alvespimycin] (1000 nM), which normalised response is on record?
Answer: 87.5%

Question: With Cc1ccc(C(=O)Nc2ccc(CN3CCN(C)CC3)c(C(F)(F)F)c2)cc1C#Cc1cnc2cccnn12 [Ponatinib] (1000 nM) as the compound, how does the normalised response read?
Answer: 59.5%

Question: COc1cc2nccc(Oc3ccc(NC(=O)C4(C(=O)Nc5ccc(F)cc5)CC4)cc3)c2cc1OC [Cabozantinib] (1000 nM) was tested. Which normalised response did it give?
Answer: 98.6%

What follows are compounds tested on HCC1937 in the same assay as above. Conditions: incubation time: 72 h.
In short: as §1

Question: How did the normalised response turn out when CC1(C)NC(=O)N(c2ccc([N+](=O)[O-])c(C(F)(F)F)c2)C1=O [Nilutamide] (1000 nM) was run?
Answer: 98%

Question: CNCc1ccc(-c2[nH]c3cc(F)cc4c3c2CCNC4=O)cc1 [Rucaparib] (10000 nM) was tested. Which normalised response did it give?
Answer: 84.9%

Question: CO[C@H]1/C=C\C=C(/C)C(=O)NC2=CC(=O)C(NCCN(C)C)=C(C[C@@H](C)C[C@H](OC)[C@H](O)[C@@H](C)/C=C(\C)[C@@H]1OC(N)=O)C2=O [Alvespimycin] (1000 nM) was tested. Which normalised response did it give?
Answer: 34.5%

Question: For Cc1ccc(C(=O)Nc2ccc(CN3CCN(C)CC3)c(C(F)(F)F)c2)cc1C#Cc1cnc2cccnn12 [Ponatinib] (1000 nM), which normalised response is on record?
Answer: 15%

Question: Which normalised response does the source give for COc1cc2nccc(Oc3ccc(NC(=O)C4(C(=O)Nc5ccc(F)cc5)CC4)cc3)c2cc1OC [Cabozantinib] (1000 nM) here?
Answer: 102%

What follows are compounds tested on CAL-148 in the same assay as above. Conditions: incubation time: 72 h.
In short: as §1

Question: For CC1(C)NC(=O)N(c2ccc([N+](=O)[O-])c(C(F)(F)F)c2)C1=O [Nilutamide] (1000 nM), which normalised response is on record?
Answer: 92%

Question: For CNCc1ccc(-c2[nH]c3cc(F)cc4c3c2CCNC4=O)cc1 [Rucaparib] (10000 nM), which normalised response is on record?
Answer: 88.9%

Question: How did the normalised response turn out when CO[C@H]1/C=C\C=C(/C)C(=O)NC2=CC(=O)C(NCCN(C)C)=C(C[C@@H](C)C[C@H](OC)[C@H](O)[C@@H](C)/C=C(\C)[C@@H]1OC(N)=O)C2=O [Alvespimycin] (1000 nM) was run?
Answer: 45.8%

Question: How did the normalised response turn out when Cc1ccc(C(=O)Nc2ccc(CN3CCN(C)CC3)c(C(F)(F)F)c2)cc1C#Cc1cnc2cccnn12 [Ponatinib] (1000 nM) was run?
Answer: 60.9%

Question: For COc1cc2nccc(Oc3ccc(NC(=O)C4(C(=O)Nc5ccc(F)cc5)CC4)cc3)c2cc1OC [Cabozantinib] (1000 nM), which normalised response is on record?
Answer: 96.9%

Each compound was assayed on CAL-85-1 in the same assay as above. Conditions: incubation time: 72 h.
In short: as §1

Question: For CC1(C)NC(=O)N(c2ccc([N+](=O)[O-])c(C(F)(F)F)c2)C1=O [Nilutamide] (1000 nM), which normalised response is on record?
Answer: 103%

Question: How did the normalised response turn out when CNCc1ccc(-c2[nH]c3cc(F)cc4c3c2CCNC4=O)cc1 [Rucaparib] (10000 nM) was run?
Answer: 129%

Question: How did the normalised response turn out when CO[C@H]1/C=C\C=C(/C)C(=O)NC2=CC(=O)C(NCCN(C)C)=C(C[C@@H](C)C[C@H](OC)[C@H](O)[C@@H](C)/C=C(\C)[C@@H]1OC(N)=O)C2=O [Alvespimycin] (1000 nM) was run?
Answer: 33.3%

Question: With Cc1ccc(C(=O)Nc2ccc(CN3CCN(C)CC3)c(C(F)(F)F)c2)cc1C#Cc1cnc2cccnn12 [Ponatinib] (1000 nM) as the compound, how does the normalised response read?
Answer: 60.8%

Question: COc1cc2nccc(Oc3ccc(NC(=O)C4(C(=O)Nc5ccc(F)cc5)CC4)cc3)c2cc1OC [Cabozantinib] (1000 nM) was tested. Which normalised response did it give?
Answer: 104%

Source: the supplement of paper PMC4862054
